What was measured:
[1] = DPPH antioxidant (free radical scavenging) assay; format: biochemical; conditions: duplicate, 5 concentrations, read at 517 nm; read-out: IC50 (DPPH assay, anti-oxidant activity)
Procedure: NWD-19, NWD-15, and NWD-14 were evaluated for antioxidant activity using the 2,2-diphenyl-1-picrylhydrazyl (DPPH) assay. The DPPH assay was used to predict antioxidant activities by mechanism in which antioxidants act to inhibit lipid oxidation, so scavenging of DPPH radical and therefore determinate free radical scavenging capacity. The DPPH antioxidant assay kit (Dokindo Molecular Technologies, Inc.) was used, and the plates were read at 517 nm on the BioTek Synergy HT plate reader (Gen5 software). All compounds were tested in duplicate at 5 concentrations to determine the anti-oxidant activity of each compound.

RPE primary cells = assay: TBARS assay in RPE primary cells after AAPH induced oxidative stress; format: cell-based; conditions: AAPH 10 mM, activity up to 0.078 μM concentration
Procedure: Primary retinal pigment endothelial cell line (RPE) were plated in appropriate growth medium in a 96 well plate overnight (16-24 hrs). Cells were then treated with NWD-19 at 7 concentrations and incubated overnight. Following incubation all wells were treated with AAPH at 10 mM to induce oxidative stress and incubated overnight. The TBARS assay was then utilized to evaluate the anti-oxidant potential of the compound in the RPE cells at various concentrations.

[2] = tested on: Primary retinal pigment endothelial cell line (RPE); assay: Protection from AAPH induced oxidative stress in RPE cells (viability, cell titer glo 2.0); format: cell-based; conditions: 1.25 μM NWD-19 pre-treatment overnight, AAPH 10 mM overnight
Procedure: Primary retinal pigment endothelial cell line (RPE) were plated in appropriate growth medium in a 96 well plate overnight (16-24 hrs). Once 80-90% confluence was achieved the cells were then treated with NWD-19 at a concentration range of 0.039 uM to 1.25 μM. Appropriate blanks were also added and the plate was incubated overnight in a CO2 (95%)/O2 (5%) incubator at 37° C. temperature. Following incubation all wells were treated with AAPH at 10 mM to induce oxidative stress and incubated overnight. After incubation the plate was assayed for viability using cell titer glo 2.0 assay (Promega).

CT-26 cells = assay: Cytotoxicity in CT-26 cancer cell line (cell titer glo 2.0); format: cell-based; conditions: Mus musculus, CT26; overnight incubation, triplicate, 6 concentrations; read-out: EC50 (percent survival, CT-26 cells)
Procedure: The CT-26 cell lines were plated at the appropriate pre-determined plating density in the 96 well plate and allowed to attach for about 16 hrs. After a suitable confluence was ensured (about 70-80%) the media was replaced with fresh media and the test compound was added to the plate in triplicate at 6 concentrations. Appropriate vehicle and positive controls were also added, and the plate was incubated overnight in a CO2 (95%)/O2 (5%) incubator at 37° C. temperature. After incubation the plate was assayed for cytotoxicity using cell titer glo 2.0 assay (Promega) on the BioTek Synergy HT plate reader (Gen5 software).

[3] = tested on: Benzalkonium chloride induced dry eyes; assay: Benzalkonium chloride induced dry eyes in C57BL/6 mice; format: in vivo; conditions: daily topical drops 10 μM from day 8 to day 21 of 0.2% BAC treatment
Procedure: Benzalkonium chloride (BAC) is a commonly used preservative in ophthalmic solutions. However, it has been reported to increase the risk of dry eye disease due to its toxicity on the ocular surface, the conjunctiva, the cornea and even deeper ocular structures. 5 uL 0.2% BAC in mice eyes has been reported to cause dry eye symptoms without affecting aqueous tear production, inflammation, or corneal smoothness (Richard Zhang, et al. Dose-dependent benzalkonium chloride toxicity imparts ocular surface epithelial changes with features of dry eye disease, The Ocular Surface, Volume 18, Issue 1, 2020, Pages 158-169).
Symptoms of dry eye disease were induced in 24 male and female C57/BL6 mice for 21 days using 0.2% daily eye drops of BAC. Daily topical application of NWD-19 at 10 μM concentration started at day 8 post BAC treatment and continued until day 21, whereas the control mice eyes were treated with PBS during this period. […] At pre-dose and subsequently on days 7, 14 and 21 post dose the mice eyes were examined by a veterinary ophthalmologist for corneal lesions and dry eye was also evaluated using a drop of 0.1% fluorescein solution in each treated eye and observation and scoring using a cobalt blue filter. […]

| Compound | IC50 [1] [µM] | anti-oxidant activity in TBARS assay (malonaldehyde equivalents) (RPE primary cells) | cell survival after AAPH induced oxidative stress [2] [%] | EC50 (CT-26 cells) [µM] | condition of the eyes (corneal lesions, dry eye fluorescein scoring) compared to vehicle control eyes [3] |
| --- | --- | --- | --- | --- | --- |
| CC1=NN(c2ccccc2)C(=O)C1CCCCCCCCCC[P+](c1ccccc1)(c1ccccc1)c1ccccc1.[Br-] (stereo not shown) [NWD-19, (10-(3-methyl-5-oxo-1-phenyl-4,5-dihydro-1H-pyrazol-4-yl)decyl) triphenyl phosphonium bromide] | 2.1 | significant anti-oxidant activity | ~50 | 9.6 | masked improvement |
| CC1=NN(c2ccccc2)C(=O)C1CCCC[P+](c1ccccc1)(c1ccccc1)c1ccccc1 (stereo not shown) [NWD-15, (4-(3-methyl-5-oxo-1-phenyl-4,5-dihydro-1H-2l4-pyrazol-4-yl)butyl) triphenyl-phosphonium bromide] | 2.3 | – | – | – | – |
| O=c1cc(CCCC[P+](c2ccccc2)(c2ccccc2)c2ccccc2)[nH]n1-c1ccccc1 [NWD-14, (4-(5-oxo-1-phenyl-2,5-dihydro-1H-pyrazol-3-yl)butyl) triphenyl phosphonium bromide] | 2.8 | – | – | – | – |
